14 compounds from patent publication US20220281866A1, “5,8-DISUBSTITUTED-[1,2,4]TRIAZOLO[1,5-A]PYRIDINYL AND 5,8-DISUBSTITUTED-IMIDAZO[1,2-A]PYRIDINE DERIVATIVES USEFUL AS INHIBITORS OF ENTEROPEPTIDASE” (Janssen Pharmaceutica NV, priority 2019, published 2022) can be followed below.

The target of assay [1] is T1, Recombinant full-length human EP (Enteropeptidase) (Homo sapiens, UniProt P98073).
T1 construct: Recombinant full-length human EP (PeproTech, Cat #450-48C); purchased PeproTech 450-48C
The assay is described as follows: In vitro inhibition potencies against Enteropeptidase (EP), fluorescent peptide GDDDDK-naphthylamine substrate. The note with it: 300 μM substrate, 1.25 nM EP; for inhibition at 0.1 µM: compound 0.1 μM; for inhibition at 1 µM: compound 1 μM; for inhibition at 10 µM: compound 10 μM. In kind it is biochemical. The protocol: In vitro inhibition potencies against Enteropeptidase (EP) Recombinant full-length human EP (PeproTech, Cat #450-48C) was used in this biochemical assay, with a quenched fluorescent labeled peptide GDDDDK-naphthylamine (NA) (Sigma, Cat #G5261) as the substrate in a buffer of 50 mM Tris-HCl pH 7.4, 200 mM NaCl and 0.01% Triton X-100. The enzyme activity was measured by following the formation of the cleavage product […](NA) by monitoring the fluorescence intensity (FI) at excitation/emission wavelengths of 340/410 nm. The steady-state kinetic characterization studies yielded an average of KM to be 412±22 μM and the apparent turnover number kcat^app of 11.8±0.4 s^−1 (N=2).
Compound inhibition studies were carried out under the conditions of 300 μM substrate and 1.25 nM EP. Reaction progress curves were collected by reading the FI at 340/410 nm continuously for 1 hour at an interval of 1 minute.
To screen compounds of formula (I), inhibition was studied at 4 different compound concentrations of 10 μM, 1 μM, 0.1 μM and 0.01 μM. Initial velocity of the reaction was determined, and percent of inhibition was calculated by comparing to the reaction in the absence of compound.
Accurate measurements of the inhibition potencies of selected compounds were studied in a 12-point dose-dependence fashion. […] Compound potency was measured by determining the inactivation rate constant (kobs) following the reaction change from the initial velocity vi to the steady-state velocity vs at various compound concentrations. The inactivation rate constants (kobs), were derived by fitting the reaction progress curves to eq. 1.
where YT is the detection signal of the reaction at time t, vi and vs are the initial and the steady-state velocities of the reaction, t is the reaction time. Y0 is the background signal (when t=0).
Compound binding mechanism was shown by plotting kobs˜[compound]. Hyperbolic fitting to eq. 2
conforms to a two-step binding mechanism as shown in Scheme BIO-1.
The plateau of the curve is the forward step rate constant of the isomerization step k3, KI^app is the inhibitor concentration that leads to half-maximal rate of inhibition of enzyme under the assay conditions. Compound inhibition potency was reported by the value of k3/KI^app.
A linear dependence of eq.3
indicates a one-step binding mechanism as shown in Scheme BIO-2
Slope of the linear fit gives the second-order rate constant of the compound binding k1, which is used to represent the compound inhibition potency.
(§1) Representative compounds of the present invention were tested according to the procedures as described in Biological Example 1 and Biological Example 2 above, with results as listed in Table 2 and Table 3, below. Results are reported as the %-inhibition (% Inh) or Kinact/KI value. Variability for the functional assay was typically within 20%. For the column headed Kinact/KI the listed measurement is the result of duplicate dilutions.

The target of another assay is T2, Bovine trypsin (Bos taurus, UniProt P00760).
T2 construct: purchased Sigma-Aldrich T1426
T2 sequence (P00760 24-246): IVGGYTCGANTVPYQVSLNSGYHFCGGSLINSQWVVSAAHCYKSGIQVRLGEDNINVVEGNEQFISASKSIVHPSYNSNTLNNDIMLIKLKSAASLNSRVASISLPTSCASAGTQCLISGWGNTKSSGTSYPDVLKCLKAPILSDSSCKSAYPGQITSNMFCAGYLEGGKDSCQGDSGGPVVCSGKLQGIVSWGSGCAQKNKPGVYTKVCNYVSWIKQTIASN
The assay is described as follows: Biochemical Assay of Trypsin (T), H-D-CHA-AR-AMC substrate. The note with it: 15 μM substrate, 0.025 nM Trypsin; for inhibition at 0.1 µM: compound 0.1 μM; for inhibition at 1 µM: compound 1 μM; for inhibition at 10 µM: compound 10 μM. Here is the method: Bovine trypsin was purchased from Sigma-Aldrich (Cat No. T1426), and 7-amino-4-methylcoumarin (AMC) conjugated peptide H-D-cyclohexylalanine (D-CHA)-AR-AMC was used as the substrate in the assay. The protease activity of trypsin was followed by measuring AMC production by the emission fluorescence intensity of AMC at 460 nm with the excitation at 375 nm, in the same assay buffer as used in the EP assay. The enzyme kinetic characterization studies yielded an average of KM to be 3.9±0.5 μM and the apparent turnover number kcat^app of 33.8±0.4 s^−1 (N=2).
Studies of compound inhibition against T were carried out under the conditions of 15 μM substrate and 0.025 nM Trypsin. Reaction progress curves were collected by reading the FI at 375/460 nm continuously for 1 hour at an interval of 1 minute. Similar to the procedure for Enteropeptidase described above, compounds of formula (I) were screened against Trypsin at 4 different concentrations to obtain the percent of inhibition at 10 μM, 1 μM, 0.1 μM and 0.01 μM, and accurate potencies of selected compounds against Trypsin were derived from detailed 12-point dose-dependence studies for time-dependent inhibitors.
as §1

T1 sequence (P98073 whole entry): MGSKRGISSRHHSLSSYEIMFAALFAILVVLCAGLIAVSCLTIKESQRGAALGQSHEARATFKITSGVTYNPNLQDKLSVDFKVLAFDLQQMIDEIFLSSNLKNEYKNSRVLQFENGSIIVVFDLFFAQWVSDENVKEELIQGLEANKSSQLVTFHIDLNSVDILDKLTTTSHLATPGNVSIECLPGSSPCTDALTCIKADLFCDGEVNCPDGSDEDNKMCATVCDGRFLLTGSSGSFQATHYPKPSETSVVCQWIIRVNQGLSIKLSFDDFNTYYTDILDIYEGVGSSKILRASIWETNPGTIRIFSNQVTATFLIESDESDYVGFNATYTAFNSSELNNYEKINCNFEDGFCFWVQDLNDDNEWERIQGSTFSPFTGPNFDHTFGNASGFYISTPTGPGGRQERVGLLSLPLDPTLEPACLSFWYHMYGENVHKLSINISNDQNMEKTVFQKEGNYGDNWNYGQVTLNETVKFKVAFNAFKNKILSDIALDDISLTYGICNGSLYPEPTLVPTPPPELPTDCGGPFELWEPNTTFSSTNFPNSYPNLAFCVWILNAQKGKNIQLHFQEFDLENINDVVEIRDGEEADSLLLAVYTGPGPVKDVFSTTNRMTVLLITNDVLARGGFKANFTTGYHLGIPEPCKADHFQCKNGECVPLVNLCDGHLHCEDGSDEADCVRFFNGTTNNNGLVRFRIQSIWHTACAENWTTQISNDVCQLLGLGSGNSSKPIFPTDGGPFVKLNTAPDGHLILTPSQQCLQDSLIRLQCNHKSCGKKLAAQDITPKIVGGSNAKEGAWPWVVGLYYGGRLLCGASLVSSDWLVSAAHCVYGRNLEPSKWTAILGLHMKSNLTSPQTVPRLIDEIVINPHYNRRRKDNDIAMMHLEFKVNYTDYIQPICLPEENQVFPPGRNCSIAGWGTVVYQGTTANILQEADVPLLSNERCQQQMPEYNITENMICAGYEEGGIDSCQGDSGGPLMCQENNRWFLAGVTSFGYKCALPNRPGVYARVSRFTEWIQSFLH

As for `N#Cc1cc(C(=O)Oc2ccc(CC(=O)O)n3ncnc23)ccc1NC(=N)N` [Compound 22, 2-(8-(3-cyano-4-guanidinobenzoyloxy)-[1,2,4]triazolo[1,5-a]pyridin-5-yl)acetic acid], in assay [1], the inhibition (usually the change of the read-out against control, counted positive when it falls) at 0.1 µM was -3%; the inhibition at 1 µM was -6.3%; the inhibition at 10 µM worked out at 32.1%. Further, at Bovine trypsin, the inhibition at 0.1 µM is 0.9%, the inhibition at 1 µM amounted to 12.3% and the inhibition at 10 µM was determined as 29.9%.
Consider `N=C(N)Nc1ccc(C(=O)Oc2ccc(CC(=O)O)n3ncnc23)cc1O` [Compound 23, 2-(8-(4-guanidino-3-hydroxybenzoyloxy)-[1,2,4]triazolo[1,5-a]pyridin-5-yl)acetic acid], for which, in assay [1], the inhibition at 0.1 µM worked out at 34.3%, the inhibition at 1 µM amounted to 92.1% and the inhibition at 10 µM worked out at 101%. For the same compound, at Bovine trypsin, the inhibition at 0.1 µM turned out to be 12.4%, the inhibition at 1 µM was found to be 73.1% and the inhibition at 10 µM stood at 100%.
For the compound `N=C(N)Nc1ccc(C(=O)Oc2ccc(CC(=O)O)n3ncnc23)c2ccoc12` [Compound 24], in assay [1], the inhibition at 0.1 µM was 36.3%, the inhibition at 1 µM turned out to be 98.8% and the inhibition at 10 µM was 100%. In addition, on Bovine trypsin, the inhibition at 0.1 µM was found to be 14.6%, the inhibition at 1 µM was found to be 80% and the inhibition at 10 µM was found to be 99.9%.
Regarding `N=C(N)Nc1ccc(C(=O)Oc2cc(CCC(=O)O)cn3ncnc23)cc1` [Compound 25, 3-(8-(4-guanidinobenzoyloxy)-[1,2,4]triazolo[1,5-a]pyridin-6-yl)propanoic acid], in assay [1], the inhibition at 0.1 µM came to 45.2%, the inhibition at 1 µM stood at 102% and the inhibition at 10 µM came to 101%. In addition, at Bovine trypsin, the inhibition at 0.1 µM stood at 99.2%, the inhibition at 1 µM was 100% and the inhibition at 10 µM was determined as 100%.
On to `N=C(N)Nc1ccc(C(=O)Oc2cc(CC(=O)O)cn3ncnc23)cc1` [Compound 26, 2-(8-(4-guanidinobenzoyloxy)-[1,2,4]triazolo[1,5-a]pyridin-6-yl)acetic acid], for which, in assay [1], the inhibition at 0.1 µM was 13.2%, the inhibition at 1 µM is 58.8% and the inhibition at 10 µM amounted to 101%. Further, on Bovine trypsin, the inhibition at 0.1 µM was determined as 81.7%, the inhibition at 1 µM worked out at 100% and the inhibition at 10 µM worked out at 100%.
With `N=C(N)Nc1ccc(C(=O)Oc2ccc(CC(=O)NC(CC(=O)O)C(=O)O)n3ccnc23)cc1` (stereo not drawn) [Compound 27, 2-(2-(8-(4-guanidinobenzoyloxy)imidazo[1,2-a]pyridin-5-yl)acetamido)succinic acid], in assay [1], the inhibition at 0.1 µM came out at 81.2%, the inhibition at 1 µM is 100% and the inhibition at 10 µM is 100%. Further, at Bovine trypsin, the inhibition at 0.1 µM worked out at 99.3%, the inhibition at 1 µM was found to be 100% and the inhibition at 10 µM is 100%.
With `N=C(N)Nc1ncc(C(=O)Oc2ccc(CC(=O)NC(CC(=O)O)C(=O)O)n3ncnc23)cn1` (stereo not drawn) [Compound 28, 2-(2-(8-(2-guanidinopyrimidine-5-carbonyloxy)-[1,2,4]triazolo[1,5-a]pyridin-5-yl)acetamido)succinic acid], in assay [1], the inhibition at 0.1 µM is 88.6%, the inhibition at 1 µM was 98.5% and the inhibition at 10 µM was 99.9%. Moreover, on Bovine trypsin, the inhibition at 0.1 µM came out at 97.8%, the inhibition at 1 µM was determined as 99.9% and the inhibition at 10 µM came to 100%.
Take `N=C(N)Nc1ncc(C(=O)Oc2ccc(CC(=O)O)n3ccnc23)cn1` [Compound 29, 2-(8-(2-guanidinopyrimidine-5-carbonyloxy)imidazo[1,2-a]pyridin-5-yl)acetic acid]: in assay [1], the inhibition at 0.1 µM was 95.3%, the inhibition at 1 µM worked out at 99.4% and the inhibition at 10 µM was 100%. For the same compound, on Bovine trypsin, the inhibition at 0.1 µM was 95.8%, the inhibition at 1 µM amounted to 99.7% and the inhibition at 10 µM stood at 100%.
Consider `CS(=O)(=O)NC(=O)Cc1ccc(OC(=O)c2cnc(NC(=N)N)nc2)c2ncnn12` [Compound 30, 5-(2-(methylsulfonamido)-2-oxoethyl)-[1,2,4]triazolo[1,5-a]pyridin-8-yl 2-guanidinopyrimidine-5-carboxylate], for which, in assay [1], the inhibition at 0.1 µM is 92.1%, the inhibition at 1 µM came out at 99.5% and the inhibition at 10 µM is 100%. At Bovine trypsin, the inhibition at 0.1 µM came out at 96.5%, the inhibition at 1 µM was 100% and the inhibition at 10 µM came to 100%.
`N=C(N)Nc1ncc(C(=O)Oc2ccc(CC(=O)NC(CC(=O)O)C(=O)O)n3ccnc23)cn1` (stereo not drawn) [Compound 31, 2-(2-(8-(2-guanidinopyrimidine-5-carbonyloxy)imidazo[1,2-a]pyridin-5-yl)acetamido)succinic acid]: in assay [1], the inhibition at 0.1 µM came out at 85.8%, the inhibition at 1 µM worked out at 99.7% and the inhibition at 10 µM stood at 99.8%. Further, at Bovine trypsin, the inhibition at 0.1 µM amounted to 95.7%, the inhibition at 1 µM was determined as 99.9% and the inhibition at 10 µM came to 100%.
For the compound `N=C1NCCN1c1ccc(C(=O)Oc2ccc(CC(=O)O)n3ncnc23)cc1` [Compound 32, 2-(8-(4-(2-iminoimidazolidin-1-yl)benzoyloxy)-[1,2,4]triazolo[1,5-a]pyridin-5-yl)acetic acid], in assay [1], the inhibition at 0.1 µM worked out at 10.5%, the inhibition at 1 µM worked out at 57.9% and the inhibition at 10 µM was determined as 93.2%. Besides, at Bovine trypsin, the inhibition at 0.1 µM amounted to 10.9%, the inhibition at 1 µM worked out at 58.3% and the inhibition at 10 µM worked out at 93%.
For the compound `CNC(=N)c1ccc(C(=O)Oc2ccc(CC(=O)O)n3ncnc23)cc1` [Compound 33, 2-(8-(4-(N-methylcarbamimidoyl)benzoyloxy)-[1,2,4]triazolo[1,5-a]pyridin-5-yl)acetic acid], in assay [1], the inhibition at 0.1 µM is -0.8%, the inhibition at 1 µM worked out at 11.3% and the inhibition at 10 µM turned out to be 52.3%. For the same compound, on Bovine trypsin, the inhibition at 0.1 µM was 5.7%, the inhibition at 1 µM turned out to be 8.7% and the inhibition at 10 µM stood at 66.5%.
Consider `CNC(=N)Nc1ccc(C(=O)Oc2ccc(CC(=O)O)n3ncnc23)cc1` [Compound 34, 2-(8-(4-(3-methylguanidino)benzoyloxy)-[1,2,4]triazolo[1,5-a]pyridin-5-yl)acetic acid], for which, in assay [1], the inhibition at 0.1 µM is 15.3%, the inhibition at 1 µM was found to be 80.1% and the inhibition at 10 µM stood at 97.9%. At Bovine trypsin, the inhibition at 0.1 µM came to 9.6%, the inhibition at 1 µM was found to be 57.1% and the inhibition at 10 µM was determined as 97.7%.
Turning to `CN(C(=N)N)c1ccc(C(=O)Oc2ccc(CC(=O)O)n3ncnc23)cc1` [Compound 35, 2-(8-(4-(1-methylguanidino)benzoyloxy)-[1,2,4]triazolo[1,5-a]pyridin-5-yl)acetic acid], in assay [1], the inhibition at 0.1 µM turned out to be 40.5%, the inhibition at 1 µM was determined as 93.8% and the inhibition at 10 µM is 99.3%. In addition, on Bovine trypsin, the inhibition at 0.1 µM came to 31.4%, the inhibition at 1 µM was 89.2% and the inhibition at 10 µM was 98.9%.
